We go through 14 molecules from patent US11192893B2, “Pyrazoloquinazolinone antitumor agents” (The Rockefeller University, priority 2017, dated 2021).

Structures are written as SMILES. Where two headings read alike, the source gives them in different places.

Assay [1] addresses human cytoplasmic dynein 2 (Homo sapiens (Human), UniProt Q8NCM8). The assay is described as follows: microtubule gliding assay with GFP-dynein 2. The format is biochemical. The note with it: 1 mM MgATP; for Gliding velocity: dynein 2-driven microtubule gliding, test compounds at 20 pM (so in the source), 0.05 mg/mL casein, 2% DMSO, solvent control 126 ± 17; for IC50: Table 1, dose-dependent analysis of dynein 2-driven microtubule gliding. The protocol: Compounds were tested employing a microtubule gliding assay, a standard biochemical assay for motor proteins. […] We purified an N-terminally GFP-tagged motor-domain construct of dynein 2 using an insect cell expression system [Schmidt et al., Nature. 2015; 518(7539):435-8]. The GFP tag in this construct allowed immobilization on passivated glass coverslips used in microtubule gliding assays. GFP-dynein 2, in the presence of ATP (1 mM), moved microtubules with a velocity of 128±14 nm/s. The mean velocity of dynein 2-driven microtubule gliding in the presence of control solvent (2% DMSO) and test compounds at 20 pM were compared. All motility assays were run at 1 mM MgATP, 0.05 mg/mL casein, and 2% DMSO. Representative examples of compounds of the invention provided the results shown as “Gliding velocity in nm/s” in Table 1. For some compounds, dose-dependent analyses were performed, and the results are shown as “IC50 in μM” in Table 1.
Microtubule surface gliding assay. Cytoplasmic dynein was purified from bovine brains as described by Bingham et al. [Methods Enzymol. 298, 171 (1998)]. K560, a 560-amino acid N-terminal fragment of human conventional kinesin (kinesin-1) with a C-terminal His-tag, was expressed in bacteria and purifed as described by Woehlke et al., [Cell 90, 207 (1997)]. Motility assays were performed on a Zeiss Axiovert 200M wide-field microscope equipped with a Zeiss 100×/1.45 NA α-Plan-Fluar objective. Data were captured with an EM-CCD camera (iXon DU-897, Andor Technology) with a 0.3-second exposure time and frame rate of 0.5 second^−1. Microtubule gliding assays were performed as described by Kapoor and Mitchison [Proc. Natl. Acad. Sci. U.S.A 96, 9106 (1999)] with some modifications. An approximately 6-μL flow chamber was filled with motor protein (100 μg/mL dynein or 50 μg/mL K560) in motor dilution buffer (80 mM Pipes, 1 mM EGTA, 2 mM MgCl2, 2 mM DTT, 50 μM ATP, pH 6.8 with KOH). After a 2-minute incubation, excess protein was washed out with 20 μL of PEM80 buffer (80 mM Pipes, 1 mM EGTA, 2 mM MgCl2, pH 6.8 with KOH) and the surface was blocked against non-specific microtubule binding by filling the chamber with blocking protein (0.5 mg/mL α-casein for dynein experiments and 1 mg/mL BSA for K560 experiments) in motor dilution buffer. After 2 minutes the chamber was perfused with 18 μL of reaction mix (PEM80, 40 mM KC 1, blocking protein [1 mg/mL α-casein for dynein experiments; 1 mg/mL BSA for K560 experiments], 2 mM MgATP, 20 μM taxol, 0.1 μM rhodamine-labeled microtubules, oxygen depletion system [4 mM DTT, 2 mM glucose, 40 μg/mL glucose oxidase, 35 μg/mL catalase], 2.5% DMSO, and test compounds as appropriate). The flow chamber was then sealed with valap. After allowing the microtubules to bind to the surface for 5 minutes, the gliding microtubules were visualized by time-lapse fluorescence microscopy. Velocities were measured by kymography using Metamorph software (Molecular Devices), and the velocity for each microtubule was determined from the total distance during the time observed.
For washout experiments, the chamber was left unsealed after the initial reaction mix containing inhibitor was added. Microtubules were allowed to bind to the surface for 5 minutes, and then a time-lapse movie was acquired. The inhibitor was then washed out of the chamber by flowing in 20 μL of fresh reaction mix (PEM80, 40 mM KCl, 1 mg/mL α-casein, 2 mM MgATP, 20 μM taxol, oxygen depletion system, and 2.5% DMSO) without additional microtubules or inhibitor. The chamber was sealed, and additional time-lapse movies were acquired.

Assay [2] concerns Hedgehog pathway activity. The assay is described as follows: Shh-Light luciferase reporter assay of Hedgehog pathway activity (Shh-Light2 cells, SAG-stimulated). It counts as cell-based. Conditions: for activity at 20 µM: 20 μM compound, read-out: SHH-light % residual @ 20 μM; for activity at 2 µM: 2 μM compound, read-out: SHH-light % residual @ 2 μM. Here is the method: To examine the inhibition of dynein 2 in cell-based assays, an established luciferase reporter-based cellular assay of Hedgehog pathway activity was employed [Taipale et al., Nature. 2000; 406(6799): 1005-9]. Signaling in this pathway depends on the function of dynein 2. In this setting, expression of luciferase driven by Hedgehog pathway activity was inhibited by compound 5 with an IC50 value of 0.9±0.5 μM. […] The potencies of these compounds in this cell-based assay match the rank-order of dynein 2 inhibition in vitro. In these assays, Hedgehog pathway activity was stimulated using the Synthetic Agonist of Smoothened (SAG). This compound competes with many Hedgehog pathway inhibitors for binding to Smoothened, a key node in the signaling pathway.
SHH-Light Assay (Steinman et al. eLife 2017; 6:e25174.)
NIH-3T3 cells stably expressing a luciferase reporter downstream of a Gli binding site (Shh-Light2 cells, RRID: CVCL_2721) were maintained in DMEM with 10% bovine calf serum (BCS). Cells were seeded at a density of 30,000 cells/well in 96-well tissue culture-treated plates (Corning, cat #353072) in 100 μL in DMEM+10% BCS, and incubated for 48 hr (Taipale et al., 2000). Wells were washed briefly with PBS. Next […] of low serum media (DMEM+0.5% BCS) containing smoothened agonist (SAG, 500 nM), and either solvent control (0.2% DMSO) or test compound (serial three-fold dilutions of each inhibitor starting from 20 μM) were added to the wells. After 28-32 hr of inhibitor treatment, cells were washed with 50 μL PBS and lysed for >30 min in 30 μL Passive Lysis Buffer (Promega Dual Luciferase kit, cat E1910). 5 uL of each lysate was transferred to white, solid-bottom 96-well plates (Greiner, cat #655075), followed by rapid addition (within 30 s) of 30 μL of Luciferase Assay Reagent using a multichannel pipette. Luminescence for each condition was read using a Synergy Neo plate reader (5 s integration time per well). Cell line identity was confirmed by measurement of the degree of response to Hedgehog pathway stimulation by the synthetic agonist SAG and using previously published values from our groups and others as references (Firestone et al., 2012; Hyman et al., 2009).
(In a reporter assay the amount or activity of a reporter protein is the signal.)

The test system of the next assay is basal cell carcinoma. The note with it: 33 human patients; cited from earlier work.
A further assay deals with medulloblastoma. The note with it: human patient; cited from earlier work.
The mark [3] stands for this setting: Table 2, SAG 500 nM, 28-32 hr treatment, read-out: Shh-light IC50.

human cytoplasmic dynein 2, sequence (Q8NCM8 1091-4307 limits assumed): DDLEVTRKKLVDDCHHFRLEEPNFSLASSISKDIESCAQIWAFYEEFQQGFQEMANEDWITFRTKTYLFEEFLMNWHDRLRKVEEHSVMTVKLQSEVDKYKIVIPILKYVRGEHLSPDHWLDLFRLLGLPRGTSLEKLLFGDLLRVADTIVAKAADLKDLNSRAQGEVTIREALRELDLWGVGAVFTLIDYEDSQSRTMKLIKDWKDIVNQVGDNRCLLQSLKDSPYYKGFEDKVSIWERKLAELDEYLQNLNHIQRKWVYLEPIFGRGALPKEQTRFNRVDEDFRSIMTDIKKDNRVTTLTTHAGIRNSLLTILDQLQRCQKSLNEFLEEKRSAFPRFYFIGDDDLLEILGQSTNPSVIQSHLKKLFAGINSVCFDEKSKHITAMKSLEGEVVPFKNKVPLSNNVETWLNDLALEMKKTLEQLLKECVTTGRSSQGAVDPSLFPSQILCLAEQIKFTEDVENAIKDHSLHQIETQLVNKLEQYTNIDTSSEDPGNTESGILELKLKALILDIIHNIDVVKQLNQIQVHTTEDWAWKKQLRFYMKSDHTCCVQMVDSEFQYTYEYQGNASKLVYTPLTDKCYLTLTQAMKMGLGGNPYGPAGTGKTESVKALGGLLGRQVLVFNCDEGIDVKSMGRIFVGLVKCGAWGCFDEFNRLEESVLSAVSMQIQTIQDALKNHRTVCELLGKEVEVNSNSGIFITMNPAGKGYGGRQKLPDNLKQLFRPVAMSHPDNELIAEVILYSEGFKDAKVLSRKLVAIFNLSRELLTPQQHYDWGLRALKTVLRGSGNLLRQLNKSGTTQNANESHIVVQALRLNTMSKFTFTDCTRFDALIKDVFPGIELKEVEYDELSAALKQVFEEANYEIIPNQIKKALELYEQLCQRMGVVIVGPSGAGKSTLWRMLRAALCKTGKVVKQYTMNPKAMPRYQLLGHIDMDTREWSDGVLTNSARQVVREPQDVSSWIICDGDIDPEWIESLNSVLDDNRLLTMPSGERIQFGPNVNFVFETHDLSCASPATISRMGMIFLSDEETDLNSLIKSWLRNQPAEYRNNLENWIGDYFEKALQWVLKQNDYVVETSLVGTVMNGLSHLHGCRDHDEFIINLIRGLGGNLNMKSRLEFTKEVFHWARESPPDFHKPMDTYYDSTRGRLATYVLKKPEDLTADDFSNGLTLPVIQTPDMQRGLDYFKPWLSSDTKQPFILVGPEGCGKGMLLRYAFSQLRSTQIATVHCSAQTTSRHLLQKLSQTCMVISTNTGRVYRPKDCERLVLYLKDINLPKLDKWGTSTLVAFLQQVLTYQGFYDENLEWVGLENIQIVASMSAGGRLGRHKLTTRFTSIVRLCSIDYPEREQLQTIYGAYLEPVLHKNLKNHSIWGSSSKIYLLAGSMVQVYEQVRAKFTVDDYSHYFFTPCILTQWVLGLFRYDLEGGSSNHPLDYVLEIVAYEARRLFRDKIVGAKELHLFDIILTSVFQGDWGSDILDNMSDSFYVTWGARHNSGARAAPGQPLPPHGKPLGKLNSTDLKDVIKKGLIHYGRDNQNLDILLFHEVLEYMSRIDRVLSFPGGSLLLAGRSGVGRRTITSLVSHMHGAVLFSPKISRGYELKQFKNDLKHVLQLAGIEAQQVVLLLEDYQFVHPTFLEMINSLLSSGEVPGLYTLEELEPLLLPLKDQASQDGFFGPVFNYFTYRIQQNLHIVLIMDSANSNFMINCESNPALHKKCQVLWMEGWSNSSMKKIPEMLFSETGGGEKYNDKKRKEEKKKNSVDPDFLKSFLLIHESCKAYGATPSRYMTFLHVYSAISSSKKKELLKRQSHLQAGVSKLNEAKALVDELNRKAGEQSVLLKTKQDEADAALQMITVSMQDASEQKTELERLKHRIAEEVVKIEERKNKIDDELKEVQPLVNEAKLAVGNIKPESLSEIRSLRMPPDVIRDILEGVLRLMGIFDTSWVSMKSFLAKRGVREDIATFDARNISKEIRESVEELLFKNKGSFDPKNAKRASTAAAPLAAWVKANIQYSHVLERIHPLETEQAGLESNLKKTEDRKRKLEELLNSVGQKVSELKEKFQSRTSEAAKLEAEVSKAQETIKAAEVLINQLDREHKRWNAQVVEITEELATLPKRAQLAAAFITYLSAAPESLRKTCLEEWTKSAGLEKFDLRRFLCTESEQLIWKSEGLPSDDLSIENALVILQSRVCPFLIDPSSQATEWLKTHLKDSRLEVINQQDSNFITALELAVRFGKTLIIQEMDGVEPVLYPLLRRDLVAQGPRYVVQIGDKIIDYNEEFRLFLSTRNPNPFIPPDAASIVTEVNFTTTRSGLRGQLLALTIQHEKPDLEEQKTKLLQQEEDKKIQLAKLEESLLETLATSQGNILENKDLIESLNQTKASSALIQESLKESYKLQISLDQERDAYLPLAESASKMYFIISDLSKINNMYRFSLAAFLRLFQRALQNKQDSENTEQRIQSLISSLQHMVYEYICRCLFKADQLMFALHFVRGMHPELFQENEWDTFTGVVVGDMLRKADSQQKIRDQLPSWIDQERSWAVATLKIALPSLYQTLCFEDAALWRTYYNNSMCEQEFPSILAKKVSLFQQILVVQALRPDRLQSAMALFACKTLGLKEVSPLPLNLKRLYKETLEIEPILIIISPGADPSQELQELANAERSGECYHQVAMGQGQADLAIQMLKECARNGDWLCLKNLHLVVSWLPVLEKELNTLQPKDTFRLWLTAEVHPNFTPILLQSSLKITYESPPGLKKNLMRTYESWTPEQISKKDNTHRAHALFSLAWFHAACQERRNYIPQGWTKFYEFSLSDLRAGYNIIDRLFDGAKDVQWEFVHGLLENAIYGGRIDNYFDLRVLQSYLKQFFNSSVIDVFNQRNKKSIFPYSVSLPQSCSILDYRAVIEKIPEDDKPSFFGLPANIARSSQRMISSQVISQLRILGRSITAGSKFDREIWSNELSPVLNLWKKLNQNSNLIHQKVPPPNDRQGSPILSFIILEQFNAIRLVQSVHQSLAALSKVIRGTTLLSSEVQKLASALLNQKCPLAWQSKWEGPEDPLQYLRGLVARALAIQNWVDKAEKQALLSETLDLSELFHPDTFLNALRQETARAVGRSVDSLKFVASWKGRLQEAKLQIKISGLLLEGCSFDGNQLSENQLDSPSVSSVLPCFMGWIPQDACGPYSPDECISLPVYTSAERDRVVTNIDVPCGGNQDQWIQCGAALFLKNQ

As for `O=c1[nH]c2cc(-c3ccc(Cl)cc3Cl)nn2c2ccccc12` [Example 1, 2-(2,4-dichlorophenyl)-4H-pyrazolo[1,5-a]quinazolin-5-one], in assay [1], the Gliding velocity is listed as 83 ± 10 nm/s.

The IC50 is the point on the concentration scale where inhibition reaches its midpoint. On to `N#Cc1c(-c2ccc(Cl)cc2Cl)nn2c1[nH]c(=O)c1ccccc12` [Example 2, 2-(2,4-dichlorophenyl)-5-oxo-4H-pyrazolo[1,5-a]quinazoline-3-carbonitrile], for which the Gliding velocity in assay [1] turned out to be 83 ± 10 nm/s. Besides, the activity at 20 µM in assay [2] (SAG 500 nM) turned out to be 19.1%. Further, in assay [2] (SAG 500 nM, read-out: IC50, luciferase expression driven by Hedgehog pathway activity), the IC50 was 5200 ± 5000 nM.

Take `N#Cc1c(C2(c3ccc(Cl)cc3)CC2)nn2c1[nH]c(=O)c1ccccc12` [Example 3, 2-[1-(4-chlorophenyl)cyclopropyl]-5-oxo-4H-pyrazolo[1,5-a]quinazoline-3-carbonitrile]: the Gliding velocity in assay [1] is on record as 58 ± 14 nm/s.

In the case of `N#Cc1c(C2(c3ccc(Cl)cc3)CC2)nn2c1[nH]c(=O)c1cc(C(F)(F)F)ccc12` [Example 4, 2-(1-(4-chlorophenyl)cyclopropyl)-5-oxo-7-(trifluoromethyl)-4,5-dihydropyrazolo[1,5-a]quinazoline-3-carbonitrile], in assay [1], the IC50 came out at 3300 ± 200 nM and the Gliding velocity was found to be 6 ± 2 nm/s. For the same molecule, in assay [2] (SAG 500 nM), the activity at 2 µM was found to be 41.8% and the activity at 20 µM was -4.4%.

With `N#Cc1c(C2(c3ccc(Cl)cc3)CC2)nn2c(=O)c3cc(Br)ccc3[nH]c12` [Example 12, 7-Bromo-2-[1-(4-chlorophenyl)cyclopropyl]-9-oxo-4H-pyrazolo[5,1-b]quinazoline-3-carbonitrile], the IC50 in assay [1] was 290 nM. Moreover, in assay [2] (SAG 500 nM), the activity at 2 µM is -3.1% and the activity at 20 µM is -1.9%. Further, the IC50 in assay [2] (setting [3]) came out at 290 nM.

Regarding `N#Cc1c(C2CCC(c3ccc(Cl)cc3)CC2)nn2c(=O)c3ccccc3[nH]c12` (stereo not shown) [Example 27, 2-[4-(4-Chlorophenyl)cyclohexyl]-9-oxo-4H-pyrazolo[5,1-b]quinazoline-3-carbonitrile], 620 nM corresponded to half-maximal inhibition in assay [1] (IC50). Moreover, in assay [2] (SAG 500 nM), the activity at 2 µM came out at 27.3% and the activity at 20 µM is -1.5%. Also, the IC50 in assay [2] (setting [3]) was 600 nM.

For `N#Cc1c(CCCOc2ccc(Cl)cc2)nn2c(=O)c3ccccc3[nH]c12` [Example 29, 2-[3-(4-Chlorophenoxy)propyl]-9-oxo-4H-pyrazolo[5,1-b]quinazoline-3-carbonitrile], half-maximal inhibition in assay [1] (IC50) required 730 nM. Besides, in assay [2] (SAG 500 nM), the activity at 2 µM came out at 33.5% and the activity at 20 µM was 3.8%. In addition, the IC50 in assay [2] (setting [3]) amounted to 680 nM.

The molecule `N#Cc1c(C2(c3ccc(Cl)cc3)CC2)nn2c(=O)c3ccccc3[nH]c12` [Example 31, 2-[1-(4-Chlorophenyl)cyclopropyl]-9-oxo-4H-pyrazolo[5,1-b]quinazoline-3-carbonitrile] gave an IC50 in assay [1] of 710 nM. Moreover, in assay [2] (SAG 500 nM), the activity at 2 µM turned out to be 30.4% and the activity at 20 µM is -1.6%. Moreover, the IC50 in assay [2] (setting [3]) is 660 nM.

Regarding `O=c1c2ccc(Cl)cc2[nH]c2cc(-c3ccc(Cl)cc3Cl)nn12` [Example 69, 6-Chloro-2-(2,4-dichlorophenyl)-4H-pyrazolo[5,1-b]quinazolin-9-one], in assay [2] (SAG 500 nM), the activity at 2 µM was 75% and the activity at 20 µM is 65.4%.

Turning to `O=c1c2ccccc2[nH]c2cc(-c3ccc(Cl)cc3Cl)nn12` [Example 70, 2-(2,4-Dichlorophenyl)-4H-pyrazolo[5,1-b]quinazolin-9-one], in assay [2] (SAG 500 nM), the activity at 2 µM was found to be 109% and the activity at 20 µM was found to be 113%.

Turning to `O=c1c2ccccc2[nH]c2cc(-c3ccc(C(F)(F)F)cc3)nn12` [Example 71, 2-[4-(Trifluoromethyl)phenyl]-4H-pyrazolo[5,1-b]quinazolin-9-one], in assay [2] (SAG 500 nM), the activity at 2 µM came out at 108% and the activity at 20 µM was found to be 115%.

Regarding `CN(C)Cc1c(-c2ccc(Cl)cc2Cl)nn2c(=O)c3ccccc3[nH]c12` [Example 72, 2-(2,4-Dichlorophenyl)-3-[(dimethylamino)methyl]-4H-pyrazolo[5,1-b]quinazolin-9-one], in assay [2] (SAG 500 nM), the activity at 2 µM is 122% and the activity at 20 µM turned out to be 20.1%.

In the case of `O=c1c2ccccc2[nH]c2c(I)c(-c3ccc(Cl)cc3Cl)nn12` [Example 73, 2-(2,4-Dichlorophenyl)-3-iodo-4H-pyrazolo[5,1-b]quinazolin-9-one], in assay [2] (SAG 500 nM), the activity at 2 µM was 99.1% and the activity at 20 µM is 34.6%.

In the case of `CS(=O)(=O)c1ccc(C(=O)Nc2ccc(Cl)c(-c3ccccn3)c2)c(Cl)c1` [GDC-0449], the “clinical response, basal cell carcinoma” value in the assay with basal cell carcinoma is on record as “clinically significant response”. For the same molecule, the “clinical response, medulloblastoma” value in the assay on medulloblastoma is given as “regression of medulloblastoma”.
